Values joined by “and” are separate entries in the source; they are usually repeats but may differ in a detail not shown here. Equal values may be shown once.
Tested on: 233499-124-R-J3-PDC complex spheroid growth
Assay: Anticancer human tumor 233499-124-R-J3-PDC patient-derived colon adenocarcinoma cell line growth inhibition [AhR]
Settings: for viability, T/C: stronger effect = lower value
In short: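 Agents were dosed in half-log steps down from roughly clinical Cmax, or from 10 microM where Cmax was unknown, alone and with AhR antagonists. Read-out: percent test/control growth of tumor spheroids containing HUVEC and MSC stromal cells.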

[1] = curve of first compound, second compound 0.1 µM
[2] = curve of first compound, second compound 0.316 µM
[3] = curve of first compound, second compound 1 µM
[4] = curve of first compound, second compound 3.16 µM
[5] = curve of first compound, second compound 10 µM
[6] = second compound 0.1 µM, first compound 0.0316 µM
[7] = second compound 0.1 µM, first compound 0.1 µM
[8] = second compound 0.1 µM, first compound 0.316 µM
[9] = second compound 0.1 µM, first compound 1 µM
[10] = second compound 0.1 µM, first compound 3.16 µM
[11] = second compound 0.1 µM, first compound 10 µM
[12] = second compound 0.316 µM, first compound 0.0316 µM
[13] = second compound 0.316 µM, first compound 0.1 µM
[14] = second compound 0.316 µM, first compound 0.316 µM
[15] = second compound 0.316 µM, first compound 1 µM
[16] = second compound 0.316 µM, first compound 3.16 µM
[17] = second compound 0.316 µM, first compound 10 µM
[18] = second compound 1 µM, first compound 0.0316 µM
[19] = second compound 1 µM, first compound 0.1 µM
[20] = second compound 1 µM, first compound 0.316 µM
[21] = second compound 1 µM, first compound 1 µM
[22] = second compound 1 µM, first compound 3.16 µM
[23] = second compound 1 µM, first compound 10 µM
[24] = second compound 3.16 µM, first compound 0.0316 µM
[25] = second compound 3.16 µM, first compound 0.1 µM
[26] = second compound 3.16 µM, first compound 0.316 µM
[27] = second compound 3.16 µM, first compound 1 µM
[28] = second compound 3.16 µM, first compound 3.16 µM
[29] = second compound 3.16 µM, first compound 10 µM
[30] = second compound 10 µM, first compound 0.0316 µM
[31] = second compound 10 µM, first compound 0.1 µM
[32] = second compound 10 µM, first compound 0.316 µM
[33] = second compound 10 µM, first compound 1 µM
[34] = second compound 10 µM, first compound 3.16 µM
[35] = second compound 10 µM, first compound 10 µM
[36] = second compound 0.1 µM, first compound 0.00949 µM
[37] = second compound 0.1 µM, first compound 0.03 µM
[38] = second compound 0.1 µM, first compound 0.0949 µM
[39] = second compound 0.1 µM, first compound 0.3 µM
[40] = second compound 0.316 µM, first compound 0.00949 µM
[41] = second compound 0.316 µM, first compound 0.03 µM
[42] = second compound 0.316 µM, first compound 0.0949 µM
[43] = second compound 0.316 µM, first compound 0.3 µM
[44] = second compound 1 µM, first compound 0.00949 µM
[45] = second compound 1 µM, first compound 0.03 µM
[46] = second compound 1 µM, first compound 0.0949 µM
[47] = second compound 1 µM, first compound 0.3 µM
[48] = second compound 3.16 µM, first compound 0.00949 µM
[49] = second compound 3.16 µM, first compound 0.03 µM
[50] = second compound 3.16 µM, first compound 0.0949 µM
[51] = second compound 3.16 µM, first compound 0.3 µM
[52] = second compound 10 µM, first compound 0.00949 µM
[53] = second compound 10 µM, first compound 0.03 µM
[54] = second compound 10 µM, first compound 0.0949 µM
[55] = second compound 10 µM, first compound 0.3 µM
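Further: spheroids exposed to agents for seven days before reading.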

## CC(C)c1c(-c2ccccc2)nc2c(C#N)c[nH]n2c1=O + CC(CO)NC(=O)c1cc(-c2ccc(Cl)cc2)nn(-c2cnn(C)c2)c1=O
[1]
  IC50: > 10 µM
[2]
  IC50: > 10 µM
[3]
  IC50: > 10 µM
[4]
  IC50: > 10 µM
[5]
  IC50: > 10 µM
[6]
  viability, T/C: 100%
[7]
  viability, T/C: 97.7%
[8]
  viability, T/C: 99.6%
[9]
  viability, T/C: 101%
[10]
  viability, T/C: 104%
[11]
  viability, T/C: 105%
[12]
  viability, T/C: 113%
[13]
  viability, T/C: 109%
[14]
  viability, T/C: 89.5%
[15]
  viability, T/C: 93.7%
[16]
  viability, T/C: 96.2%
[17]
  viability, T/C: 102%
[18]
  viability, T/C: 107%
[19]
  viability, T/C: 106%
[20]
  viability, T/C: 98%
[21]
  viability, T/C: 102%
[22]
  viability, T/C: 104%
[23]
  viability, T/C: 100%
[24]
  viability, T/C: 101%
[25]
  viability, T/C: 95.3%
[26]
  viability, T/C: 94.5%
[27]
  viability, T/C: 96.8%
[28]
  viability, T/C: 92.4%
[29]
  viability, T/C: 87.8%
[30]
  viability, T/C: 98.2%
[31]
  viability, T/C: 82.5%
[32]
  viability, T/C: 93.5%
[33]
  viability, T/C: 86.3%
[34]
  viability, T/C: 87.4%
[35]
  viability, T/C: 96.6%

## CC(C)CC(NC(=O)C(Cc1ccccc1)NC(=O)c1cnccn1)B(O)O (centres undefined) + CC(CO)NC(=O)c1cc(-c2ccc(Cl)cc2)nn(-c2cnn(C)c2)c1=O
[1]
  IC50: 0.00847 µM
[2]
  IC50: 0.00801 µM
[3]
  IC50: 0.00687 µM
[4]
  IC50: 0.00612 µM
[5]
  IC50: 0.00496 µM
Second compound 0.1 µM, first compound 0.000949 µM
  viability, T/C: 92.4%
Second compound 0.1 µM, first compound 0.003 µM
  viability, T/C: 102%
[36]
  viability, T/C: 44.9%
[37]
  viability, T/C: 0.09%
[38]
  viability, T/C: 0.09%
[39]
  viability, T/C: 0.2%
Second compound 0.316 µM, first compound 0.000949 µM
  viability, T/C: 92.1%
Second compound 0.316 µM, first compound 0.003 µM
  viability, T/C: 93.2%
[40]
  viability, T/C: 42.6%
[41]
  viability, T/C: 0.13%
[42]
  viability, T/C: 0.04%
[43]
  viability, T/C: 0.12%
Second compound 1 µM, first compound 0.000949 µM
  viability, T/C: 102%
Second compound 1 µM, first compound 0.003 µM
  viability, T/C: 100%
[44]
  viability, T/C: 30.6%
[45]
  viability, T/C: 0.08%
[46]
  viability, T/C: 0.05%
[47]
  viability, T/C: 0.12%
Second compound 3.16 µM, first compound 0.000949 µM
  viability, T/C: 84.5%
Second compound 3.16 µM, first compound 0.003 µM
  viability, T/C: 88.8%
[48]
  viability, T/C: 27.5%
[49]
  viability, T/C: 0.1%
[50]
  viability, T/C: 0.13%
[51]
  viability, T/C: 0.12%
Second compound 10 µM, first compound 0.000949 µM
  viability, T/C: 66.5%
Second compound 10 µM, first compound 0.003 µM
  viability, T/C: 84.2%
[52]
  viability, T/C: 17.2%
[53]
  viability, T/C: 0.18%
[54]
  viability, T/C: 0.12%
[55]
  viability, T/C: 0.18%

## Nc1ccccc1NC(=O)c1ccc(CNC(=O)OCc2cccnc2)cc1 + Cc1cncc(-c2nc(NCCc3c[nH]c4ccccc34)c3ncn(C(C)C)c3n2)c1
[1]
  IC50: 4.26 µM
[2]
  IC50: 2.61 µM
[3]
  IC50: 1.78 µM
[4]
  IC50: 1.49 µM
[5]
  IC50: < 0.0316 µM
[6]
  viability, T/C: 89.4%
[7]
  viability, T/C: 99.9%
[8]
  viability, T/C: 92.6%
[9]
  viability, T/C: 106%
[10]
  viability, T/C: 65.9%
[11]
  viability, T/C: 4.68%
[12]
  viability, T/C: 93.8%
[13]
  viability, T/C: 90%
[14]
  viability, T/C: 80.7%
[15]
  viability, T/C: 109%
[16]
  viability, T/C: 41.3%
[17]
  viability, T/C: 2.94%
[18]
  viability, T/C: 80.4%
[19]
  viability, T/C: 84.8%
[20]
  viability, T/C: 71.9%
[21]
  viability, T/C: 93.9%
[22]
  viability, T/C: 17.1%
[23]
  viability, T/C: 1.34%
[24]
  viability, T/C: 74%
[25]
  viability, T/C: 77.7%
[26]
  viability, T/C: 78.6%
[27]
  viability, T/C: 74.6%
[28]
  viability, T/C: 4.12%
[29]
  viability, T/C: 0.26%
[30]
  viability, T/C: 7.14%
[31]
  viability, T/C: 7.87%
[32]
  viability, T/C: 7.4%
[33]
  viability, T/C: 1.13%
[34]
  viability, T/C: 0.78%
[35]
  viability, T/C: 0.29%

## CCN(c1cc(-c2ccc(CN3CCOCC3)cc2)cc(C(=O)NCc2c(C)cc(C)[nH]c2=O)c1C)C1CCOCC1 + Cc1ccccc1N=Nc1ccc(NC(=O)c2ccnn2C)c(C)c1
[1]
  IC50: > 3 µM
[2]
  IC50: > 3 µM
[3]
  IC50: > 3 µM
[4]
  IC50: > 3 µM
[5]
  IC50: > 3 µM
[36]
  viability, T/C: 99.3%
[37]
  viability, T/C: 98%
[38]
  viability, T/C: 95.1%
[39]
  viability, T/C: 97.1%
Second compound 0.1 µM, first compound 0.949 µM
  viability, T/C: 97.2%
Second compound 0.1 µM, first compound 3 µM
  viability, T/C: 102%
[40]
  viability, T/C: 88%
[41]
  viability, T/C: 95.8%
[42]
  viability, T/C: 100%
[43]
  viability, T/C: 95.3%
Second compound 0.316 µM, first compound 0.949 µM
  viability, T/C: 98.3%
Second compound 0.316 µM, first compound 3 µM
  viability, T/C: 96.6%
[44]
  viability, T/C: 107%
[45]
  viability, T/C: 97.6%
[46]
  viability, T/C: 104%
[47]
  viability, T/C: 93.1%
Second compound 1 µM, first compound 0.949 µM
  viability, T/C: 92.3%
Second compound 1 µM, first compound 3 µM
  viability, T/C: 100%
[48]
  viability, T/C: 95.1%
[49]
  viability, T/C: 93.9%
[50]
  viability, T/C: 105%
[51]
  viability, T/C: 91.7%
Second compound 3.16 µM, first compound 0.949 µM
  viability, T/C: 92.6%
Second compound 3.16 µM, first compound 3 µM
  viability, T/C: 93.7%
[52]
  viability, T/C: 101%
[53]
  viability, T/C: 96.1%
[54]
  viability, T/C: 91.8%
[55]
  viability, T/C: 92.7%
Second compound 10 µM, first compound 0.949 µM
  viability, T/C: 93.9%
Second compound 10 µM, first compound 3 µM
  viability, T/C: 99.5%

## Nc1ncn(C2CC(O)C(CO)O2)c(=O)n1 (centres undefined)
Compound 0.00316 µM
  viability, T/C: 100% and 95.5% and 94.7%
Compound 0.01 µM
  viability, T/C: 99.2% and 102% and 92.5%
Compound 0.0316 µM
  viability, T/C: 89.7% and 85.1% and 97%
Compound 0.1 µM
  viability, T/C: 94.7% and 85.4% and 97.1%
Compound 0.316 µM
  viability, T/C: 92.5% and 90.6% and 99.1%
Compound 1 µM
  viability, T/C: 86.9% and 92.4% and 92.5%
Curve of compound
  IC50: > 1 µM

## CC(C)c1c(-c2ccccc2)nc2c(C#N)c[nH]n2c1=O
Compound 0.0316 µM
  viability, T/C: 101% and 108% and 114%
Compound 0.1 µM
  viability, T/C: 105% (2×) and 103%
Compound 0.316 µM
  viability, T/C: 107% and 96% and 113%
Compound 1 µM
  viability, T/C: 94% and 102% and 93.5%
Compound 3.16 µM
  viability, T/C: 98.7% and 110% and 117%
Compound 10 µM
  viability, T/C: 117% and 124% and 105%
Curve of compound
  IC50: > 10 µM

— PubChem BioAssay AID1918993 (Molecular Pharmacology Branch, DTP, NCI, 2023)
